Molecular target: hMRGX2 (CHO-K1 cells overexpressing MRGX2) (Homo sapiens (Human), UniProt Q96LB1)
Test: In vitro inhibition (EC50) of intracellular calcium flux, FLIPR Tetra, substance P stimulation
Format: cell-based
Conditions: stimulated with MRGX2 ligand substance P, FLIPR Calcium 5, read-out: hMRGX2 Cellular Potency (pEC50) (converted)
Procedure: In Vitro Inhibition (EC50) of Intracellular Calcium Flux
The release of intracellular calcium following stimulation of cells with substance P in the presence or absence of inhibitor compounds was measured using the FLIPR Tetra® system. CHO-K1 cells overexpressing MRGX2 were seeded into 384-well plates (Black clear bottom, TC-treated, Fisher #07-200-655) and incubated overnight to allow for cell attachment. Media was removed, and 1× loading buffer (FLIPR® Calcium 5 assay solution, Molecular Devices, per manufacturer specifications) was added. The plates were incubated at 37° C. for 30 minutes. Test compounds were added to cells (11-point dose response, 10 µM maximum concentration) and fluorescence measured (120 seconds, in real time) using the FLIPR Tetra® system. Immediately following, MRGX2 ligand substance P was added at a final concentration of 1 µM and fluorescence measured (120 seconds, in real time) using the FLIPR Tetra® system. The data for the examples are reported as pEC50.

hMRGX2 (CHO-K1 cells overexpressing MRGX2), sequence (Q96LB1 whole entry): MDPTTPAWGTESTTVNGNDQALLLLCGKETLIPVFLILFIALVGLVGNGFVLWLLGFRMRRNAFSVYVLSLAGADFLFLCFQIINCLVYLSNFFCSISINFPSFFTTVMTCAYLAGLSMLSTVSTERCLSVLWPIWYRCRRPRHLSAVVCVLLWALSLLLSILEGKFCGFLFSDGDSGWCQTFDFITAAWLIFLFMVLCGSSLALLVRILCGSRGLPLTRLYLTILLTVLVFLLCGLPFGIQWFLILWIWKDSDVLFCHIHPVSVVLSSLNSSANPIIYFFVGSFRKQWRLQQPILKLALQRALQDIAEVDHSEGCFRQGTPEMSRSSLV

| EC50 [µM] | Structure (SMILES) |
| --- | --- |
| 0.35 | CNC1=NS(=O)(=O)c2cccc(-c3cccc(F)c3C)c2N1 [Example 95, 5-(3-fluoro-2-methylphenyl)-3-(methylamino)-4H-benzo[e][1,2,4]thiadiazine 1,1-dioxide] |
| 0.0871 | COC(C)CNC1=NS(=O)(=O)c2cccc(-c3cc(F)cc(F)c3F)c2N1 (stereo not drawn) [Example 127, 3-((2-methoxypropyl)amino)-5-(2,3,5-trifluorophenyl)-4H-benzo[e][1,2,4]thiadiazine 1,1-dioxide] |
| 0.0366 | O=S1(=O)N=C(NCCc2ccccn2)Nc2c(-c3cccc(F)c3Cl)cccc21 [Example 67, 5-(2-chloro-3-fluorophenyl)-3-((2-(pyridin-2-yl)ethyl)amino)-4H-benzo[e][1,2,4]thiadiazine 1,1-dioxide] |
| 0.76 | CC(C)c1ccc(NC2=NS(=O)(=O)c3cccc(-c4cnn(C(F)F)c4)c3N2)cc1 [Example 99, 5-(1-(difluoromethyl)-1H-pyrazol-4-yl)-3-((4-isopropylphenyl)amino)-4H-benzo[e][1,2,4]thiadiazine 1,1-dioxide] |
| 0.281 | COCCNC1=NS(=O)(=O)c2cccc(-c3cccc(C(F)(F)F)c3Cl)c2N1 [Example 132, 5-(2-chloro-3-(trifluoromethyl)phenyl)-3-((2-methoxyethyl)amino)-4H-benzo[e][1,2,4]thiadiazine 1,1-dioxide] |
| 0.389 | CNC1=NS(=O)(=O)c2cccc(-c3cccc(F)c3F)c2N1 [Example 26, 5-(2,3-difluorophenyl)-3-(methylamino)-4H-benzo[e][1,2,4]thiadiazine 1,1-dioxide] |
| 0.0406 | COCCNC1=NS(=O)(=O)c2cc(F)cc(-c3ccccc3Cl)c2N1 [Example 14, 5-(2-chlorophenyl)-7-fluoro-3-((2-methoxyethyl)amino)-4H-benzo[e][1,2,4]thiadiazine 1,1-dioxide] |
| 0.11 | CC(NC1=NS(=O)(=O)c2cc(F)cc(-c3cccc(F)c3Cl)c2N1)c1nccs1 (stereo not drawn) [Example 8, 5-(2-chloro-3-fluorophenyl)-7-fluoro-3-((1-(thiazol-2-yl)ethyl)amino)-4H-benzo[e][1,2,4]thiadiazine 1,1-dioxide] |
| 0.136 | N#Cc1cnc(CNC2=NS(=O)(=O)c3cccc(-c4ccnc(F)c4Cl)c3N2)s1 [Example 55, 2-(((5-(3-chloro-2-fluoropyridin-4-yl)-1,1-dioxido-4H-benzo[e][1,2,4]thiadiazin-3-yl)amino)methyl)thiazole-5-carbonitrile] |
| 0.692 | O=S1(=O)N=C(NCC2CC2)Nc2c(-c3cc(F)ccc3F)cccc21 [Example 140, 3-((cyclopropylmethyl)amino)-5-(2,5-difluorophenyl)-4H-benzo[e][1,2,4]thiadiazine 1,1-dioxide] |
| 0.0268 | O=S1(=O)N=C(NCC2CC2)Nc2c(-c3cccc(F)c3Cl)cccc21 [Example 29, 5-(2-chloro-3-fluorophenyl)-3-((cyclopropylmethyl)amino)-4H-benzo[e][1,2,4]thiadiazine 1,1-dioxide] |
| 0.0249 | CO[C@@H](C)CNC1=NS(=O)(=O)c2cccc(-c3cc(F)cc(F)c3F)c2N1 (single isomer, unassigned) [Example 128] |
| 0.0771 | CCNC1=NS(=O)(=O)c2cccc(-c3ccccc3Cl)c2N1 [Example 42, 5-(2-chlorophenyl)-3-(ethylamino)-4H-benzo[e][1,2,4]thiadiazine 1,1-dioxide] |
| 0.248 | Cc1nn(C)cc1-c1cccc2c1NC(NCc1ccc(Cl)cn1)=NS2(=O)=O [Example 59, 3-(((5-chloropyridin-2-yl)methyl)amino)-5-(1,3-dimethyl-1H-pyrazol-4-yl)-4H-benzo[e][1,2,4]thiadiazine 1,1-dioxide] |
| 0.141 | COC(C)CNC1=NS(=O)(=O)c2cccc(-c3ccccc3C#N)c2N1 (stereo not drawn) [Example 145, 2-(3-((2-methoxypropyl)amino)-1,1-dioxido-4H-benzo[e][1,2,4]thiadiazin-5-yl)benzonitrile] |
| 0.162 | N#Cc1ccccc1-c1cccc2c1NC(NCC1CCC1)=NS2(=O)=O [Example 146, 2-(3-((cyclobutylmethyl)amino)-1,1-dioxido-4H-benzo[e][1,2,4]thiadiazin-5-yl)benzonitrile] |
| 0.32 | N#Cc1c(F)cccc1-c1cccc2c1NC(NCCF)=NS2(=O)=O [Example 149, 2-fluoro-6-(3-((2-fluoroethyl)amino)-1,1-dioxido-4H-benzo[e][1,2,4]thiadiazin-5-yl)benzonitrile] |
| 0.0933 | O=S1(=O)N=C(NCCOCC(F)F)Nc2c(-c3cccc(F)c3Cl)cccc21 [Example 160, 5-(2-chloro-3-fluorophenyl)-3-((2-(2,2-difluoroethoxy)ethyl)amino)-4H-benzo[e][1,2,4]thiadiazine 1,1-dioxide] |

| EC50 [µM] | Structure (SMILES) |
| --- | --- |
| 0.179 | CCOC(C)CNC1=NS(=O)(=O)c2cccc(-c3cccc(F)c3Cl)c2N1 (stereo not drawn) [Example 58, 5-(2-chloro-3-fluorophenyl)-3-((2-ethoxypropyl)amino)-4H-benzo[e][1,2,4]thiadiazine 1,1-dioxide] |
| 0.394 | COCCNC1=NS(=O)(=O)c2cccc(-c3cccc(F)c3F)c2N1 [Example 37, 5-(2,3-difluorophenyl)-3-((2-methoxyethyl)amino)-4H-benzo[e][1,2,4]thiadiazine 1,1-dioxide] |
| 0.746 | Cc1cc(NC2=NS(=O)(=O)c3cccc(-c4cccc(F)c4Cl)c3N2)nn1C(C)C [Example 74, 5-(2-chloro-3-fluorophenyl)-3-((1-isopropyl-5-methyl-1H-pyrazol-3-yl)amino)-4H-benzo[e][1,2,4]thiadiazine 1,1-dioxide] |
| 0.0273 | COC(C)CCNC1=NS(=O)(=O)c2cccc(-c3cccc(F)c3Cl)c2N1 (racemic) [Example 153, 5-(2-chloro-3-fluorophenyl)-3-((3-methoxybutyl)amino)-4H-benzo[e][1,2,4]thiadiazine 1,1-dioxide] |
| 0.225 | O=S1(=O)N=C(NCc2ccco2)Nc2c(-c3cc(F)cc(F)c3)cccc21 [Example 164, 5-(3,5-difluorophenyl)-3-((furan-2-ylmethyl)amino)-4H-benzo[e][1,2,4]thiadiazine 1,1-dioxide] |
| 0.431 | O=S1(=O)N=C(Nc2ccccc2)Nc2c(C3CC3)cccc21 [Example 121, 5-cyclopropyl-3-(phenylamino)-4H-benzo[e][1,2,4]thiadiazine 1,1-dioxide] |
| 0.0504 | COCCNC1=NS(=O)(=O)c2cccc(-c3ccnc(F)c3Cl)c2N1 [Example 36, 5-(3-chloro-2-fluoropyridin-4-yl)-3-((2-methoxyethyl)amino)-4H-benzo[e][1,2,4]thiadiazine 1,1-dioxide] |
| 0.289 | Cc1cc(-c2cccc3c2NC(Nc2ccc(C(C)C)cc2)=NS3(=O)=O)n[nH]1 [Example 98, 3-((4-isopropylphenyl)amino)-5-(5-methyl-1H-pyrazol-3-yl)-4H-benzo[e][1,2,4]thiadiazine 1,1-dioxide] |
| 0.305 | O=S1(=O)N=C(NCCF)Nc2c(-c3ccccc3Cl)cccc21 [Example 45, 5-(2-chlorophenyl)-3-((2-fluoroethyl)amino)-4H-benzo[e][1,2,4]thiadiazine 1,1-dioxide] |
| 0.0355 | CNC1=NS(=O)(=O)c2cc(F)cc(-c3ccccc3Cl)c2N1 [Example 13, 5-(2-chlorophenyl)-7-fluoro-3-(methylamino)-4H-benzo[e][1,2,4]thiadiazine 1,1-dioxide] |
| 0.368 | Cc1cccc(CNC2=NS(=O)(=O)c3cccc(-c4cc(F)cc(F)c4)c3N2)n1 [Example 79, 5-(3,5-difluorophenyl)-3-(((6-methylpyridin-2-yl)methyl)amino)-4H-benzo[e][1,2,4]thiadiazine 1,1-dioxide] |
| 0.0608 | O=S1(=O)N=C(NCC2CCCO2)Nc2c(-c3cccc(F)c3Cl)cccc21 (stereo not drawn) [Example 123, 5-(2-chloro-3-fluorophenyl)-3-(((tetrahydrofuran-2-yl)methyl)amino)-4H-benzo[e][1,2,4]thiadiazine 1,1-dioxide] |
| 0.0242 | O=S1(=O)N=C(NCc2nccs2)Nc2c(-c3ccnc(F)c3Cl)cccc21 [Example 49, 5-(3-chloro-2-fluoropyridin-4-yl)-3-((thiazol-2-ylmethyl)amino)-4H-benzo[e][1,2,4]thiadiazine 1,1-dioxide] |
| 0.0475 | COCCNC1=NS(=O)(=O)c2cccc(-c3cccc(F)c3C3CC3)c2N1 [Example 156, 5-(2-cyclopropyl-3-fluorophenyl)-3-((2-methoxyethyl)amino)-4H-benzo[e][1,2,4]thiadiazine 1,1-dioxide] |
| 0.0879 | Cn1cccc(CNC2=NS(=O)(=O)c3cccc(-c4cccc(F)c4Cl)c3N2)c1=O [Example 46, 3-(((5-(2-chloro-3-fluorophenyl)-1,1-dioxido-4H-benzo[e][1,2,4]thiadiazin-3-yl)amino)methyl)-1-methylpyridin-2(1H)-one] |
| 0.47 | COCCNC1=NS(=O)(=O)c2cccc(-c3cc(F)cc(F)c3F)c2N1 [Example 168, 3-((2-methoxyethyl)amino)-5-(2,3,5-trifluorophenyl)-4H-benzo[e][1,2,4]thiadiazine 1,1-dioxide] |
| 0.288 | CCNC1=NS(=O)(=O)c2cccc(-c3cccc(F)c3F)c2N1 [Example 165, 5-(2,3-difluorophenyl)-3-(ethylamino)-4H-benzo[e][1,2,4]thiadiazine 1,1-dioxide] |
| 0.0457 | CC(C)c1ccc(NC2=NS(=O)(=O)c3cccc(-c4cnn(C5COC5)c4)c3N2)cc1 [Example 101, 3-((4-isopropylphenyl)amino)-5-(1-(oxetan-3-yl)-1H-pyrazol-4-yl)-4H-benzo[e][1,2,4]thiadiazine 1,1-dioxide] |
